Source: patent publication EP4722217A1, “PYRIMIDO-PYRIDINE COMPOUND, PHARMACEUTICAL COMPOSITION THEREOF AND USE THEREOF” (Sunshine Lake Pharma Co., Ltd., priority 2023, dated 2025)

Columns and labels:
Format in all cases: cell-based
[1] = tested on: pERK in KRAS G12D mutant cell line ASPC-1; assay: Inhibitory effect on intracellular pERK by In-Cell Western Assay (96-well); conditions: Homo sapiens, ASPC1; pERK inhibition, ASPC-1 cells, 2 h incubation; read-out: ASPC-1, IC50 (nM) KRAS p.G12D
Experimental: (2) On the first day, the following cells were revived with the corresponding culture medium and incubated in a 5% CO2 incubator at 37 °C until confluence:
(2) On the third day, the culture medium was removed, 2 mL of trypsin was added for digestion, and the cells were placed in an incubator until the cells detached. (3) 5 mL of fresh culture medium was added to resuspend the cells to terminate the digestion, and the cells were gently pipetted and centrifuged at 1000 rpm for 5 minutes at room temperature. (4) The supernatant was removed, and 5 mL of new culture medium was added to resuspend the cells and count them. (5) The cells were adjusted to the appropriate cell concentration with complete culture medium and plated in a 96-well plate. 90 µL of cells were added to each well, the cells were incubated in a 5% CO2 incubator at 37 °C overnight. (6) 10 µL of the prepared serial dilution compound (DMSO final concentration was 0.5%) was added and the cells were incubated in a 5% CO2 incubator at 37 °C for 2 h. (7) The supernatant was discarded, and 200 µL of 4% paraformaldehyde fixative was added to fix the cells. (8) The cells were washed three times with TBST. (9) The blocking solution was added and the cells were incubated at room temperature for 1 h. […]

HPAC = assay: 3D-CTG proliferation inhibition of HPAC cells; conditions: Homo sapiens, read-out: IC50 (nM) KRAS G12D, Table D-2, titled HPAC, cell proliferation, read after the 8th day of incubation, read-out: GP2D, IC50 (nM) KRAS G12D
Experimental: • (1) GP2D and HPAC cells were revived in DMEM medium containing 10% fetal bovine serum and used for experiments after the cells were recovered. • (2) On the first day, the cells were rinsed once with PBS, preheated trypsin was added, and the cells were placed in a 37 °C 5% CO2 incubator for 3-5 minutes. The digestion was terminated by adding an appropriate amount of complete culture medium (containing 10% fetal bovine serum), and the cells were transferred to a centrifuge tube and centrifuged at 1000 rpm for 5 minutes. • (3) The cells were resuspended in complete culture medium, counted, and adjusted to the appropriate cell concentration with complete culture medium. • (4) Using the ECHO 655 ultrasonic liquid handling system, 0.2 µl of the prepared 200× serial dilution compound (final DMSO concentration of 0.5%) was added to a 384-well plate. 40 µl of the cell suspension counted in step (3) was then added to each well and the plate was incubated in a 5% CO2 incubator at 37 °C. • (6) After the 8th day of incubation, 3D CTG detection reagent was added to each well. • (7) Signal values were read using Envision. • (8) Data analysis: • a) DMSO and culture medium were used to test the stability of the experimental method: • H = DMSO well • L = Culture medium well H, CV% (DMSOwell) = 100 × (SDvalueofDMSOwell/averagevalueofDMSOwell) [formula] […]

[2] = tested on: pERK in KRAS G12D mutant cell line AGS; assay: Inhibitory effect on intracellular pERK by In-Cell Western Assay (384-well); conditions: Homo sapiens; pERK inhibition, AGS cells, 3 h incubation; read-out: AGS, IC50 (nM) KRAS p.G12D
Experimental: (7) The cells were fixed. (8) The cells were washed twice with PBS. (9) The blocking solution was added and the cells were incubated at room temperature for 1 h. […] (11) The cells were washed twice with PBST (PBS + 0.05% Tween 20) for 2 minutes each time.

ASPC-1 = assay: 3D-CTG proliferation inhibition of KRAS G12D mutant cells; conditions: Homo sapiens, ASPC1, cell proliferation, read after the 7th day of incubation
Experimental: (§1) (1) On the first day, the following cells were revived with the corresponding culture medium and incubated in a 5% CO2 incubator at 37 °C until confluence:
(§2) (2) On the second day, the cells were rinsed once with PBS, preheated trypsin was added, and the cells were placed in a 37 °C 5% CO2 incubator for digestion for 3~5 minutes. The digestion was terminated by adding an appropriate amount of complete culture medium (containing 10% fetal bovine serum), and the cells were transferred to a centrifuge tube and centrifuged at 1000 rpm for 5 minutes. (3) The cells were resuspended in complete culture medium, counted, and adjusted to the appropriate cell concentration with complete culture medium. (4) 90 µl/well of cell suspension was added to a 96-well plate and incubated in a 5% CO2 incubator at 37 °C overnight. (5) Each well was added with 10 µl of the prepared 10× serial dilution compound (final DMSO concentration was 0.5%) and incubated in a 37°C 5% CO2 incubator. (6) After the 7th day of incubation, 50 µl of 3D CTG detection reagent was added to each well and the cells were shaken at 350 rpm for 20 minutes. (7) Signal values were read using an enzyme meter. (8) Data analysis: IC50 values were fitted using the nonlinear regression equation in Graphpad software. […]

Panc04.03 = assay: as above; conditions: Homo sapiens, Panc 04.03, cell proliferation, read after the 7th day of incubation
Experimental: as §1, §2

GP2D = assay: 3D-CTG proliferation inhibition of GP2D cells; conditions: cell proliferation, read after the 8th day of incubation, read-out: GP2D, IC50 (nM) KRAS G12D
Experimental: • (1) GP2D and HPAC cells were revived in DMEM medium containing 10% fetal bovine serum and used for experiments after the cells were recovered. • (2) On the first day, the cells were rinsed once with PBS, preheated trypsin was added, and the cells were placed in a 37 °C 5% CO2 incubator for 3-5 minutes. The digestion was terminated by adding an appropriate amount of complete culture medium (containing 10% fetal bovine serum), and the cells were transferred to a centrifuge tube and centrifuged at 1000 rpm for 5 minutes. • (3) The cells were resuspended in complete culture medium, counted, and adjusted to the appropriate cell concentration with complete culture medium. • (4) Using the ECHO 655 ultrasonic liquid handling system, 0.2 µl of the prepared 200× serial dilution compound (final DMSO concentration of 0.5%) was added to a 384-well plate. 40 µl of the cell suspension counted in step (3) was then added to each well and the plate was incubated in a 5% CO2 incubator at 37 °C. • (6) After the 8th day of incubation, 3D CTG detection reagent was added to each well. • (7) Signal values were read using Envision. • (8) Data analysis: • a) DMSO and culture medium were used to test the stability of the experimental method: • H = DMSO well • L = Culture medium well H, CV% (DMSOwell) = 100 × (SDvalueofDMSOwell/averagevalueofDMSOwell) [formula] L, CV% (correspondingculturemediumwell) = 100 × (SDvalueofculturemediumwell/average [formula] value of corresponding culture medium well) [formula] [formula] • b) IC50 values were fitted using the nonlinear regression equation in XLfit 5.5.0 software. Y = Bottom + (Top−Bottom)/(1+10^(∧)((LogIC50−X)*HillSlope)) [formula] • X: Log value of compound concentration • Y: Inhibition rate (% inh)

## C#Cc1c(F)ccc2cc(O)cc(-c3nc(C#CC)c4c(N5CC6CCC(C5)N6)nc(OCC56CC(=C)CN5CC(=C)C6)nc4c3F)c12 [Example 2]
[1]
  IC50: 0.86 nM
HPAC
  IC50: 0.77 nM
[2]
  IC50: 0.4 nM
ASPC-1
  IC50: 0.42 nM
Panc04.03
  IC50: 0.85 nM
GP2D
  IC50: 0.17 nM

## C#Cc1c(F)ccc2cc(O)cc(-c3nc(C#CC)c4c(N5CC6CCC(C5)N6)nc(OCC56CCCN5CC(=C)C6)nc4c3F)c12 (centres unmarked) [Example 5]
GP2D
  IC50: 0.07 nM

## C#Cc1c(F)ccc2cc(O)cc(-c3nc(C#C)c4c(N5CC6CCC(C5)N6)nc(OCC56CC(=C)CN5CC(=C)C6)nc4c3F)c12 [Example 6]
GP2D
  IC50: 1.6 nM

## C=C1CN2CC(=C)CC2(COc2nc(N3CC4CCC(C3)N4)c3c(C#CC)nc(-c4cc(O)cc5ccc(F)c(CC)c45)c(F)c3n2)C1 [Example 9]
GP2D
  IC50: 0.19 nM

## C=C1CN2CC(=C)CC2(COc2nc(N3CC4CCC(C3)N4)c3c(C#CC)nc(-c4cc(N)cc(Cl)c4C(F)(F)F)c(F)c3n2)C1 [Example 10]
GP2D
  IC50: 12.4 nM

## C#Cc1c(F)ccc2cc(O)cc(-c3nc(C#CC)c4c(N5CC6CCC(C5)N6)nc(OCC56CCCN5CC(=CF)C6)nc4c3F)c12 (centres unmarked) [Example 11]
GP2D
  IC50: 0.03 nM
